Results from patent US9526729B2, “Medicament for treating peripheral neuropathies” (priority 2013, dated 2016).

What was measured:
[1] = target: viral polymerase (Human herpesvirus 1, UniProt P04293); details: cited from earlier work
[2] = test system: Herpes simplex virus (HSV); test: Clinical cases of alopecia due to HSV infection; format: in vivo, human
[3] = test system: recurrent erythema multiforme; details: continuous acyclovir therapy; double-blind trial in 1995 (Tatnall); cited from earlier work
[4] = test system: Herpes simplex virus (HSV); test: Clinical cases of impetigo induced by HSV infection; format: in vivo, human; details: for clinical outcome, skin lesions: Acyclovir G. 10 mg/kg 4 times a day for 7 days + anti-allergic agents
Procedure: (§1) The QTT process can be applied to the tissue samples from the patient's skin so as to reveal some histopathological changes from the QTT sample, i.e. the tissue samples from the patient's skin, by using a microscope. The inspector or the medical staff can observe the histopathological changes to diagnose HSV infection.
(§2) 1. Adult: Valacyclovir (500 mg) • a. 2 tablets daily (i.e. 1 tablet after breakfast and dinner) for 5-7 days. • b. 3 tablets daily (i.e. every 8 hours) for severe cases in the beginning only.

[5] = test system: Herpes simplex virus (HSV); test: Clinical cases of diabetic skin complications (psoriasiform plaques induced by HSV infection); format: in vivo, human; details: Acyclovir (400 mg) 3 tablets daily for 10 days then 2 tablets daily for 10 days + NBUVB + Gr. I and III topical CS; 7 days afterwards
Source text: (§3) Step 104: Performing an antibody testing or a PCR techniques on the tissue sample from the specific part of the patient. The antibody testing, such as the HSV IgG testing, the cytomegalovirus immunoglobulin G (CMV IgG) testing or the non-specific immunoglobulin E (IgE) testing is adapted to be performed on a peripheral blood, acting as the tissue sample, of the patient. The PCR testing is adapted to be performed on peripheral blood, skin, bone marrow, mucosa, saliva, cerebrospinal fluid, amniotic fluid, brain tissue, tears or skin secretions, acting as the tissue sample, of the patient. The antibody testing or PCR techniques may be referred to the description in the section of “Diagnosis of HSV Infection”. The normal titer for CMV IgG/HSV IgG is less than 2 and the normal titer for non-specific IgE is less than 170 IU/ml. When the tissue sample from peripheral blood of the patient has a titer for CMV IgG/HSV IgG greater than 2, the process of “anti-HSV treatments” in step 106 is then carried out. Otherwise, the step 108 of “other treatments” is carried out. Alternatively, when the result of detecting the tissue sample via the PCR techniques is positive, the process of “anti-HSV treatments” in step 106 is then carried out; when the result of detecting the tissue sample via the PCR techniques is negative, the step 108 of “other treatments” is carried out.
1. […]

[6] = test system: Herpes simplex virus (HSV); test: Clinical cases of QTT-positive HSV-associated dermatitis treated with antiviral agent; format: in vivo, human
Source text: Step 100: Checking a potential disease (D) relates to a dermatosis or a non-skin disease. For example, some questions are given for the patient and the skin of the patient is checked by an experienced inspector or a medical staff to determine if a potential disease (D) had by the patent relates to a dermatosis or a non-skin disease. If the potential disease (D) relates to a dermatosis, the inspector or the medical staff will take some tissue samples from an affected part of a patient's skin, as illustrated in step 101, and the test in step 102 for testing the tissue samples from the patient's skin will continue. If the disease (D) relates to a non-skin disease, the inspector or the medical staff takes a tissue sample from a specific part, such as peripheral blood, skin, bone marrow, mucosa, saliva, cerebrospinal fluid, amniotic fluid, brain tissue, tears or skin secretions, of the patient, as illustrated in step 103, based on the method for testing the tissue sample in step 104, and then the test in step 104 for testing the tissue samples from the specific part of the patient will continue.
as §1, with “Step 102: Performing a Quick Tzanck Test (QTT) process. The QTT” for “The QTT”
Step 106: Treating an anti-HSV treatment of, for example, prescribing an anti-HSV medicine or an anti-HSV cream for the patient. The patient may take the anti-HSV medicine to cure the HSV infection. Alternatively, the patient may apply the anti-HSV cream onto the affected part of the patient's skin.
as §2

[7] = test system: Herpes simplex virus (HSV); test: Clinical cases of chilblain induced by HSV infection; format: in vivo, human; details: for clinical outcome, red swollen fingers with pain: 2nd case of chilblain
Source text: as §1, with “Step 102: Performing a Quick Tzanck Test (QTT) process. The QTT” for “The QTT”
as §3, §2

[8] = target: viral thymidine kinase (Human herpesvirus 1, UniProt P0DTH5); details: conversion into acyclo-guanosine monophosphate; cited from earlier work
Chain of viral thymidine kinase (P0DTH5 whole entry): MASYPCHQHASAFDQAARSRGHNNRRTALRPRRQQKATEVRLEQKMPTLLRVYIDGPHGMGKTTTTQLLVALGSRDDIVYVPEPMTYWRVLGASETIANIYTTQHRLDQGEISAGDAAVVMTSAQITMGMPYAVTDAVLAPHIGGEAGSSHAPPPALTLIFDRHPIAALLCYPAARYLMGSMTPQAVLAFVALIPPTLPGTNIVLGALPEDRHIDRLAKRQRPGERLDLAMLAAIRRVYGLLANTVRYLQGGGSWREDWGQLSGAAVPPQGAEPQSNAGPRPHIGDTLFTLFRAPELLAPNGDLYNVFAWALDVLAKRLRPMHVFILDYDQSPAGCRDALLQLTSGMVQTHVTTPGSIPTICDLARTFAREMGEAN

[9] = test system: Herpes simplex virus (HSV); test: Clinical cases of pyoderma gangrenosum induced by HSV infection; format: in vivo, human
[10] = test system: Herpes simplex virus (HSV); test: Clinical cases of acne induced by HSV infection; format: in vivo, human; details: for clinical outcome, symptoms: 7 days later
Procedure: as §1, with “Step 102: Performing a Quick Tzanck Test (QTT) process. The QTT” for “The QTT”
as §2
Consequently, the treatment in the present invention of acne may comprise a cream or an ointment mixed by an Anti-HSV agent to put on the affected part of the patient, wherein the Anti-HSV agent comprises Valacyclovir or Acyclovir. For example, the ADO ointment used in this invention contains acyclovir, lidocaine and diclofenac.

[11] = CASE 7, with anti-allergic agent and antibiotic ointment, 9 days later

Chain of viral polymerase (P04293 whole entry): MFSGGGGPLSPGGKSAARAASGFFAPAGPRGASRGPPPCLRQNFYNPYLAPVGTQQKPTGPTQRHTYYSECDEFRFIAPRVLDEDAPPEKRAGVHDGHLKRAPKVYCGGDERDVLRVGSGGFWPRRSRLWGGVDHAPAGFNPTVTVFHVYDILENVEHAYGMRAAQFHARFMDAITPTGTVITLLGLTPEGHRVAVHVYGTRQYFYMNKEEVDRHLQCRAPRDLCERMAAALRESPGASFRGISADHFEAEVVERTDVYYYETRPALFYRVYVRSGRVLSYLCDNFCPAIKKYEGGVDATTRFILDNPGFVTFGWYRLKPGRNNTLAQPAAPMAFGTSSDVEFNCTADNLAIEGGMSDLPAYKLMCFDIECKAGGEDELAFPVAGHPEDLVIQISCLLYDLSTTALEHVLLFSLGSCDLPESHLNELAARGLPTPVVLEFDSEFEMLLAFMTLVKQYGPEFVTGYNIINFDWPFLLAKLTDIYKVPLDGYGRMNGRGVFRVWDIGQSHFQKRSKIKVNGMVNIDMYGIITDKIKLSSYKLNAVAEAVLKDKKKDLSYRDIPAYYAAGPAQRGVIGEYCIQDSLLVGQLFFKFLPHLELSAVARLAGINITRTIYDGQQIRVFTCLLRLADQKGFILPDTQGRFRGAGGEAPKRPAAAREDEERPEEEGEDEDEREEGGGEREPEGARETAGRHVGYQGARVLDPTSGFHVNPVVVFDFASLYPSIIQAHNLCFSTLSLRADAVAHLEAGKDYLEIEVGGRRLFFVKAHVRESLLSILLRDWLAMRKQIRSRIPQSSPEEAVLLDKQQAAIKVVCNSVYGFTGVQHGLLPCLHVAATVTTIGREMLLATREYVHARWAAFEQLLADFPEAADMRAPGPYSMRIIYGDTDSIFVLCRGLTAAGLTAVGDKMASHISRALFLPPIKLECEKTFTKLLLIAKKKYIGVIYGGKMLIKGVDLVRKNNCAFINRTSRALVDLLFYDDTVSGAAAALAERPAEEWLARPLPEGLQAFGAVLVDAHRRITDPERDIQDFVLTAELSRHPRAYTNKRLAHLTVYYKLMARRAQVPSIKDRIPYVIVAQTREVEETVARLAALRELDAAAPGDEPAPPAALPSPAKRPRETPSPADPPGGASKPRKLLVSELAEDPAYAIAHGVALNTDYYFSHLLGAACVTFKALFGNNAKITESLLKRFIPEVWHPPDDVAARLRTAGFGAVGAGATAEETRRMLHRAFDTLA

With `Nc1nc2c(ncn2COCCOP(=O)(O)OP(=O)(O)OP(=O)(O)O)c(=O)[nH]1` [Acyclo-GTP, acyclo-guanosine triphosphate] as the compound, how does the “greater affinity for viral than cellular polymerase” value [1] read?
The value was “approximately 100 times”.

With `Nc1nc(O)c2ncn(COCCO)c2n1` [Acyclovir, 2-Amino-1,9-dihydro-9-((2-hydroxyethoxy)methyl)-6H-purin-6-one] as the compound, how does the “clinical outcome, vesicopapules and pustules on back” value ([2]; 1st case of alopecia and acne-like eruption, after the treatment) read?
The value was “only a few vesicopapules and pustules on their back”.

And the hair regrowth ([2]; 1st case of alopecia, Acyclovir (400 mg) 3 tablets daily for 10 days and 2 tablets daily for 14 days + anti-allergic agent + Gr. III topical CS, 23 days later)?
The hair regrowth was “Small white hairs appeared especially over central portion”.

What about the “suppression of recurrent erythema multiforme” value [3] of the same compound?
The value was “completely suppressed”.

What about the “clinical outcome, skin lesions” value ([4]; 1st case of impetigo, antibiotics, 9 days later) of the same compound?
The value was “only some erythema on their mandible and some small red erosions over right cheek”.

And the “clinical outcome, lesion” value ([4]; 2nd case of impetigo, Acyclovir G. 10 mg/kg 4 times a day for 7 days + antibiotics ointment, 3 days later)?
Its value is “The lesion dried, desquamated and became flat”.

What about the recurrence ([4]; 4th case of impetigo, about one year) of the same compound?
Its recurrence is “no recurrence till now”.

What about the “clinical outcome, skin lesions” value ([4]; 5th case of impetigo, Gr. IV topical corticosteroids, antibiotic ointment, 5 days later) of the same compound?
Its value is “some small erosions around their month and some vesiculopapules over the erythematosus eyelids”.

What about the recurrence ([4]; 5th case of impetigo, about 14 months) of the same compound?
Its recurrence is “no recurrence till now”.

What about the “clinical outcome, psoriasiform plaques” value [5] of the same compound?
Its value is “Some lesions disappeared and the scaling of the psoriasiform plaques decreased a lot”.

And the “clinical outcome, vesiculopapules and plaques” value ([6]; CASE 6, QTT positive, 2 days later)?
The value was “nearly no vesiculopapules and plaques over their trunk and upper extremity”.

What about the “clinical outcome, earlier similar eruptions” value ([6]; Case 8, 5-7 days of acyclovir granules, 7 and 9 months ago) of the same compound?
The value was “Completely disappearance of similar eruptions”.

What about the “clinical outcome, swelling, pain, erosion” value ([7]; 1st case of chilblain, Acyclovir 200 mg 3 tablets daily for 7 days, 7 days later) of the same compound?
Its value is “The swelling and pain decreased a lot. The erosion improved”.

What about the “effectiveness of viral thymidine kinase in phosphorylation versus cellular thymidine kinase” value [8] of the same compound?
The value was 3000 times.

For `CC(C)C(N)C(=O)OCCOCn1cnc2c(=O)nc(N)[nH]c21` (centres unmarked) [Valacyclovir, 2-[(2-amino-6-oxo-6,9-dihydro-3H-purin-9-yl)methoxy]ethyl-2-amino-3-methylbutanoate], which hair regrowth ([2]; 1st case of alopecia, about 7 weeks after they finished Valacyclovir 2 tablets daily for 5 days) is on record?
The hair regrowth was “New hairs including black hairs increased a lot”.

What about the “clinical outcome, pustule” value ([2]; 2nd case of alopecia, Valacyclovir 1 tablets daily for 95 days + anti-allergic agent + Acyclovir ointment for 6 weeks, a week later) of the same compound?
Its value is “The pustule disappeared”.

And the “clinical outcome, atrophic plague” value ([2]; 2nd case of alopecia, same regimen, 2 weeks later)?
The value was “nearly no change on the atrophic plague”.

What about the hair regrowth ([2]; 2nd case of alopecia, same regimen, 4 weeks later) of the same compound?
The hair regrowth was “hair increased obviously on the right side and posterior aspect”.

What about the hair regrowth ([2]; 2nd case of alopecia, same regimen, 16 weeks later) of the same compound?
The hair regrowth was “New black hairs (circle) were observed and no more alopecia on the right side”.

What about the “clinical outcome, erosions and oozing” value ([9]; 1st case of pyoderma gangrenosum, Valacyclovir 3 tablets daily for 10 days + anti-allergic agent, antibiotics ointment, Gr. III topical CS, 10 days later) of the same compound?
Its value is “no more erosions and oozing”.

And the “clinical outcome, vesicles” value ([4]; 3rd case of impetigo, Valacyclovir 2 tablets daily + anti-allergic agent, 3 days after the treatment)?
The value was “the vesicles found over their left neck 6 days ago collapsed”.

And the “clinical outcome, symptoms” value ([4]; 3rd case of impetigo, Valacyclovir 2 tablets daily for 7 days + anti-allergic agent + antibiotics 2 days, 7 days later)?
Its value is “Symptoms have significantly improved”.

And the “clinical outcome, vesicles and swelling of forearm” value ([6]; CASE 5, 2 days after Valacyclovir granule)?
The value was “Most of the vesicles became crusts and the swelling of their forearm improved a lot”.

And the “clinical outcome, anterior chest” value [6, 11]?
Its value is “only few vesiculopapules over their anterior chest”.

What about the “clinical outcome, lower abdomen” value [6, 11] of the same compound?
The value was “nearly no punched out erosions over their lower abdomen”.

And the recurrence ([6]; Case 9, follow-up after treatment)?
The recurrence was “no recurrence for 2 years”.

What about the “clinical outcome, vesicles” value ([6]; Case 9, with anti-allergic agent, 3 days after treatment) of the same compound?
The value was “the roofs of the vesicles detached and became crusted erosions”.

And the “clinical outcome, skin lesion” value ([6]; Case 9, with anti-allergic agent, 7 days later)?
The value was “healed completely”.

What about the “clinical outcome, pustules and inflammation” value ([10]; 1st case of acne, Valacyclovir 2 tablets daily for 5 days + Nadifloxacin cream, 5 days later) of the same compound?
Its value is “The number of the pustules and the extent of inflammation decreased”.

What about the “clinical outcome, pustules” value ([10]; 2nd case of acne, Valacyclovir 2 tablets daily for 5 days + ADO ointment, 8 days later) of the same compound?
Its value is “Nearly no pustules were seen”.

What about the “clinical outcome, inflammation and comedoes” value ([10]; 3rd case of acne, Valacyclovir 2 tablets daily for 5 days per month + ADO ointment, 23 days later) of the same compound?
Its value is “The severe inflammation on the nose and over the left cheek decreased a lot”.

And the “clinical outcome, pustules” value ([10]; 4th case of acne, Valacyclovir 2 tablets daily for 5 days + anti-allergic agent + Gr. IV topical CS, 2 days later)?
Its value is “Not only the number but also the size of the pustules decreased a lot”.

What about the recurrence ([10]; 4th case of acne, after completed medication, about one year) of the same compound?
Its recurrence is “no recurrence till now”.

And the “clinical outcome, symptoms” value ([10]; 5th case of acne, Valacyclovir 2 tablets daily for 5 days + antibiotics 2 days + Nadifloxacin cream)?
The value was “Symptoms have significantly improved”.

And the “clinical outcome, symptoms” value ([10]; 6th case of acne, Valacyclovir 2 tablets daily for 5 days + Nadifloxacin cream + Gr. IV topical CS)?
Its value is “Symptoms have significantly improved”.

And the “clinical outcome, red swollen fingers with pain” value ([7]; after 2nd prescriptions: Valacyclovir 1 tablets daily for 14 days + anti-allergic agent + ADO ointment 2 time daily)?
Its value is “improved”.

And the “clinical outcome, red swollen fingers with pain” value ([7]; after 3rd prescriptions: Valacyclovir 1 tablets daily for 14 days + anti-allergic agent + ADO ointment 2 time daily)?
Its value is “nearly cured”.

For `C[C@]12C=CC(=O)C=C1CC[C@@H]1[C@@H]2[C@@H](O)C[C@@]2(C)[C@H]1CC[C@]2(O)C(=O)CO` [prednisolone], which “clinical outcome, symptoms” value ([9]; 2nd case of pyoderma gangrenosum with ulcerative colitis, oral prednisolone 40 mg tapered + gentamycin ointment + mesalazine, no antiviral, 13 days later) is on record?
Its value is “Symptoms have significantly improved”.
